Experimental data reported in patent US9750738B2, “Arylpiperazine opioid receptor antagonists” (RESEARCH TRIANGLE INSTITUTE, priority 2010, dated 2017).

How the values were obtained:
[1] = biological target: T1, cloned human μ opioid receptor (Homo sapiens, UniProt P35372); experiment: Inhibition of DAMGO-stimulated [35S]GTPγS binding; assay type: biochemical; settings: antagonism of agonist DAMGO; for Kb: read-out: μ, DAMGO Ke
T1 construct: expressed in transfected cells

[2] = biological target: T2, cloned human δ opioid receptor (Homo sapiens, UniProt P41143); experiment: Inhibition of DPDPE-stimulated [35S]GTPγS binding; assay type: biochemical; settings: antagonism of agonist DPDPE; for Kb: read-out: δ, DPDPE Ke
T2 construct: expressed in transfected cells

[3] = biological target: T3, cloned human κ opioid receptor (Homo sapiens, UniProt P41145); experiment: Inhibition of U69,593-stimulated [35S]GTPγS binding; assay type: biochemical; settings: antagonism of agonist U69,593, [35S]GTPγS binding; for Kb: read-out: κ, U69,593 ke
T3 construct: expressed in transfected cells
T3 sequence (P41145 whole entry): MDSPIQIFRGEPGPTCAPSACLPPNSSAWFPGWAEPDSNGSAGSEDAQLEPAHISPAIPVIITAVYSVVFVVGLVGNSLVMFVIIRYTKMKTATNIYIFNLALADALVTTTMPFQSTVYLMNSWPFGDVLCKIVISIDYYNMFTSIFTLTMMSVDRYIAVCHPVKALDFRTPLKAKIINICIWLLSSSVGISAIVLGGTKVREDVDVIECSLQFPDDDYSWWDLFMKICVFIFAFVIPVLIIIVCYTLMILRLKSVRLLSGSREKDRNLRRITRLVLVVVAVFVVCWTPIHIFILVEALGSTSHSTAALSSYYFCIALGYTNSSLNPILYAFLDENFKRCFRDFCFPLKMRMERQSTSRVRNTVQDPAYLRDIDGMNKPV

T1 sequence (P35372 whole entry): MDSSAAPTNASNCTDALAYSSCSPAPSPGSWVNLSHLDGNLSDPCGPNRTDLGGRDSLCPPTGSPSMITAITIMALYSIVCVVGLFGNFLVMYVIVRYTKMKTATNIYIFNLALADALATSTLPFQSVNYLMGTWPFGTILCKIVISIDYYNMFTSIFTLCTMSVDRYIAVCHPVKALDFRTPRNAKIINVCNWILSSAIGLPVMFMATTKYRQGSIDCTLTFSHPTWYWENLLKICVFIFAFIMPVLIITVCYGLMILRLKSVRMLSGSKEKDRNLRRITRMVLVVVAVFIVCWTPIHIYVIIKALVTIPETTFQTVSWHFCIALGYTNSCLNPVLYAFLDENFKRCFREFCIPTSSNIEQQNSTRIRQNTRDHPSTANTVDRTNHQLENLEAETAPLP
T2 sequence (P41143 whole entry): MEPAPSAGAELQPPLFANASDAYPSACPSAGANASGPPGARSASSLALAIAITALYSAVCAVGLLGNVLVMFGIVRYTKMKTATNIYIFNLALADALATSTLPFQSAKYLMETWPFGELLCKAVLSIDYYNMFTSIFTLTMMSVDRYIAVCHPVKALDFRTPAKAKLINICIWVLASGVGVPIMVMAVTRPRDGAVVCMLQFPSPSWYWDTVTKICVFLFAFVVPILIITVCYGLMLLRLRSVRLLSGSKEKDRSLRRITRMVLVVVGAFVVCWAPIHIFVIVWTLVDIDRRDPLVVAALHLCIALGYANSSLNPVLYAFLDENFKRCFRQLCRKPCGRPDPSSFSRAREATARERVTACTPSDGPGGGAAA

SMILES	Kb [1] [nM]	Kb [2] [nM]	Kb [3] [nM]	also measured
C[C@H]1CN(CCCc2ccccc2)CCN1c1cccc(O)c1 [Compound 5b, (S)-3-(2-Methyl-4-phenylpropylpiperazin-1-yl)phenol]	0.88	13.4	4.09	
C[C@H]1CN(C)CC[C@@]1(C)c1cccc(O)c1 [Compound 2b, reference compound]				μ, DAMGO Ke [1]: 29 ± 3 nM; δ, DPDPE Ke [2]: 680 ± 240 nM; κ, U69,593 ke [3]: 155 ± 24 nM
CC(C)[C@@H](CN1CCN(c2cccc(O)c2)[C@@H](C)C1)NC(=O)[C@H]1Cc2ccc(O)cc2CN1 [Compound 5j, (3R)-7-Hydroxy-N-[(1S)-1-{[(3S)-4-(3-hydroxyphenyl)-3-methylpiperazin-1-yl]methyl}-2-methylpropyl]-1,2,3,4-tetrahydroisoquinoline-3-carboxamide]	22 ± 4	274 ± 48	2.7 ± 0.1	
C[C@H]1CN(C)CCN1c1cccc(O)c1 [Compound 5f, (S)-3-(2,4-Dimethylpiperazin-1-yl)phenol]	508 ± 26		193 ± 19	
CC1CN(CCCc2ccccc2)CC(C)N1c1cccc(O)c1 (stereo not shown) [Compound 5d, (Z)-3-(2,6-Dimethyl-4-(3-phenylpropyl)piperazin-1-yl)phenol]		4300	3	
C[C@@H](N)CN1CCN(c2cccc(O)c2)[C@@H](C)C1 [Compound 31b, 3-{(2S)-4-[(2R)-2-amino-propyl]-2-methylpiperazin-1-yl}phenol]				melting point: 210 to 215 °C
C[C@@H]1CN(CCCc2ccccc2)[C@@H](C)CN1c1cccc(O)c1 [Compound 5h, 3-((2R,5S)-2,5-Dimethyl-4-(3-phenylpropyl)piperazin-1-yl)phenol]	18 ± 4	179 ± 68	26 ± 7	
C[C@@H]1CN(CCCc2ccccc2)CCN1c1cccc(O)c1 [Compound 5c, (R)-3-(2-Methyl-4-phenylpropylpiperazin-1-yl)phenol]	1 ± 0.2	7 ± 2	1.5 ± 0.4	
C[C@H]1CN(c2cccc(O)c2)[C@@H](C)CN1CCCc1ccccc1 [Compound 5e, 3-[(2S,5S)-2,5-Dimethyl-4-(3-phenylpropyl)piperazin-1-yl]phenol]			7 ± 0.3	
Oc1cccc(N2CCN(CCCc3ccccc3)CC2)c1 [Compound 5a, 3-(4-Phenylpropylpiperazin-1-yl)phenol]	8.5 ± 1.4	34 ± 6	15 ± 3	
C[C@@H]1CN(c2cccc(O)c2)[C@@H](C)CN1CCCc1ccccc1 [Compound 5g, 3-((2S,5R)-2,5-Dimethyl-4-(3-phenylpropyl)piperazin-1-yl)phenol]	6.1 ± 1.7	55 ± 3	4.2 ± 0.8	
CCC1CN(CCCc2ccccc2)CCN1c1cccc(O)c1.Cl.Cl (stereo not shown)				melting point: 161 to 166 °C
CC(C)[C@H](N)CN1CCN(c2cccc(O)c2)[C@@H](C)C1 [Compound 5i, 3-{(2S)-4-[(2S)-2-Amino-3-methylbutyl]-2-methylpiperazin-1-yl}phenol]	2	55	10	
CC1CN(CCCc2ccccc2)CCC1(C)c1cccc(O)c1 (stereo not shown) [Compound 2c, N-phenylpropyl 3,4-dimethyl-4-(3-hydroxyphenyl)piperidine, reference compound]	0.1 ± 0.02	0.9 ± 0.3	0.88 ± 0.2	
